What is called IC50 is the concentration that inhibits the measured activity by half.

The test system of assay [1] is human platelets. Description: collagen-evoked aggregation of washed human platelets. It is filed as cell-based. The method, then: Venous blood was obtained from healthy human subjects who had not taken NSAID's for at least two weeks. Blood was drawn into plastic syringes containing ACD. […] The platelet rich plasma was transferred into fresh plastic tubes and centrifuged at 400×g for 5 min. […] A platelet count was made, which determined the volume of platelet suspension needed to make up 350×10^6 cells for each measurement. The aliquot was diluted with medium to make 0.5 ml/assay/cuvette. Appropriate calibration of the aggregometer (PAP-4C) for 0% and 100% transmission was carried out through the use of a sample of platelet suspension and cell-free medium (37).
0.5 ml of platelet suspension was added to siliconized glass tubes (four at a time) and heated with magnetic stirring to 37° for 1 min in a platelet aggregometer (PAP-4C). Either vehicle alone (ethanol, 1 μl) or hepoxilin analog was then added, followed two min later by agonist (collagen: 2 μg; PGH2: 100 ng/0.5 ml; U46619: 10 ng/0.5 ml or I-BOP: 2 ng/0.5 ml). The response was recorded for the next 5 min. In experiments where analysis of TxB2 and HHT were to be made by HPLC, the platelet suspension at the end of the experiment was diluted with ethyl acetate, 100 ng of prostaglandin B1 was added as internal standard, and the mixture was acidified to pH 3 with 0.1 N HCl. After centrifugation, the organic layer was separated, washed twice with water to neutrality, and evaporated to dryness. Half of the sample was taken and was resuspended in 1 ml ethyl acetate containing 20 μg ADAM reagent, and was left in the dark for 2 h (38). The solvent was then evaporated and the residue was acetylated with a solution of pyridine/acetic anhydride (3/1, v/v) during 16 h at 23°. The reagents were evaporated to dryness and the residue was resuspended in acetonitrile/water for HPLC analysis. In experiments where the conversion of tritiated PGH2 was to be monitored, the procedure described above was repeated with tritiated PGH2 instead of unlabeled PGH2. After extraction of the sample as described above, the radiolabeled compounds were analyzed by TLC. Dose response curves for varying amounts of test compounds were generated and the data expressed as % inhibition of collagen-induced platelet aggregation. Each point was investigated 5 times and statistical analysis of the data was carried out using Macintosh Statview statistical software.

Assay [2] deals with human platelets. The experiment in a line: PGH2-evoked platelet aggregation. The following applies: PGH2 100 ng; PBT-3 at various doses before PGH2. The assay is classed as cell-based. The method, then: Venous blood was obtained from healthy human subjects who had not taken NSAID's for at least two weeks. Blood was drawn into plastic syringes containing ACD. It was immediately centrifuged at 23° at 200×g for 15 min. The platelet rich plasma was transferred into fresh plastic tubes and centrifuged at 400×g for 5 min. The supernatant was discarded and the platelet sediment was resuspended in fresh medium containing NaCl (137 mM), KCl (1 mM), NaH2PO4, glucose (5.5 mM), HEPES (20 mM) and CaCl2 (1 mM) and allowed to stand at room temperature for 30 min. A platelet count was made, which determined the volume of platelet suspension needed to make up 350×10^6 cells for each measurement. The aliquot was diluted with medium to make 0.5 ml/assay/cuvette. […]
0.5 ml of platelet suspension was added to siliconized glass tubes (four at a time) and heated with magnetic stirring to 37° for 1 min in a platelet aggregometer (PAP-4C). […] The response was recorded for the next 5 min. […] In experiments where the conversion of tritiated PGH2 was to be monitored, the procedure described above was repeated with tritiated PGH2 instead of unlabeled PGH2. After extraction of the sample as described above, the radiolabeled compounds were analyzed by TLC. Dose response curves for varying amounts of test compounds were generated and the data expressed as % inhibition of collagen-induced platelet aggregation. […]

For another assay, the target named is T1, COX-1 (Ovis aries, UniProt P05979).
T1 construct: purchased Cayman Chemicals
T1 sequence (P05979 25-600): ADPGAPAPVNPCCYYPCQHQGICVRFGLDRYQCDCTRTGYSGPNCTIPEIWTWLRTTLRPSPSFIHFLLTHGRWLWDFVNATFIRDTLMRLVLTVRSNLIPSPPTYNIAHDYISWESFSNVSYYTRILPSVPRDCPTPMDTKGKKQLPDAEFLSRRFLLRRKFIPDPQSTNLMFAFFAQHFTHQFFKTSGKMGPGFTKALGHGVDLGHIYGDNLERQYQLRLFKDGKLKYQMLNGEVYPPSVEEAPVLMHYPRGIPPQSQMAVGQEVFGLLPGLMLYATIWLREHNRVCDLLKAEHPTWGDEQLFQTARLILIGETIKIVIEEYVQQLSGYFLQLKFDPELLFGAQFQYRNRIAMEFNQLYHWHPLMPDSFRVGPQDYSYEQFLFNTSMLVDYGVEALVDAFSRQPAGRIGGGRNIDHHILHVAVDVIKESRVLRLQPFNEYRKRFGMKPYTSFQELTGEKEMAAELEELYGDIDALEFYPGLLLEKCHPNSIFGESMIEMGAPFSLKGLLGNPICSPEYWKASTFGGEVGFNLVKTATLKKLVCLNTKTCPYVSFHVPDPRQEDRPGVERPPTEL
Description: COX-1 activity, 14C-arachidonic acid conversion, TLC. The assay is classed as biochemical. The following applies: for COX-1 enzyme activity (% of control values, mean ± SD): n = 3. How it is done: COX-1 and COX-2 enzyme preparations were purchased from Cayman Chemicals. Preliminary studies established that 40 U of COX-1 or COX-2 could convert about 70% of ^14C-arachidonic acid (spec. act. 55 mCi/mmol, Ontario Isotopes, Ontario, Canada; 100,000 cpm were diluted with 0.5 μg unlabeled arachidonic acid (Cayman Chemicals)/1 ml assay) into products in vitro. Different amounts of PBT-3 (10 μg and 20 μg) were added and the conversion of AA into products was assessed during a 10 min reaction in 1 ml phosphate buffer at 37°. After extraction, products were assessed by TLC (silica gel G, ethyl acetate/acetic acid, 99/1, v/v). After development, the TLC plates were scanned for radioactive products with a Berthold TLC radiochromatogram scanner and the radioactivity was quantified by scraping zones of silica gel, placing in scintillation vials, elution with 1 ml methanol and addition of scintillation medium. Radioactivity was determined by conventional counting in a beta scintillation counter.

With `CCCCC/C=C\CC1CC1[C@@H](O)/C=C\C/C=C\CCCC(=O)OC` (stereo partly drawn) [PBT-3, 10(S)-hydroxy-11,12-cyclopropyl-eicosa-5Z,8Z,14Z-trienoic acid methyl ester], in the assay on human platelets [1] (Homo sapiens, Platelet, washed human platelets, collagen 2 μg, read-out: IC50 for inhibition of collagen-evoked aggregation), the IC50 is ~0.8 µM. Moreover, the “inhibition of collagen-evoked aggregation” value in the assay with human platelets [1] (single dose 1 μg added 2 min prior to collagen (2 μg), 350×10^6 washed human platelets in 0.5 ml) was “inhibited the collagen effect, with PBT-3 being the most potent”. For the same compound, the “inhibition of PGH2-evoked aggregation” value with human platelets [2] is “inhibited the second wave of aggregation”. The “COX-1 enzyme activity (% of control values, mean ± SD)” value on COX-1 (PBT-3 3.00 μM) was 119.6 ± 14^NS % of control; on COX-1 (PBT-3 30.0 μM) it was 116.8 ± 11^NS % of control. Besides, the “inhibition of COX-1, in words” value on COX-1 (relatively large amounts of PBT-3, about 3-4 log doses greater than required to inhibit the TP receptor) is on record as “Neither COX-1, COX-2,12-LOX nor Plase A2 was inhibited”.
